Data from article PMC5750217 (Nature Communications, 2018).
Substitutions are numbered along the chain they refer to.

What was measured:
[1] = target: T1, A1-T458S/T459C (mutant ASCT1) (Homo sapiens, UniProt P43007, T458S/T459C); test: Radiolabelled uptake in oocytes expressing A1-T458S/T459C; type: cell-based; details: 10 µM L-[3H]substrate, 10 min, room temperature
T1 construct: expressed in transfected cells; host or cells: Xenopus laevis oocytes (cRNA injection)
T1 sequence (P43007 1-532 T458S/T459C): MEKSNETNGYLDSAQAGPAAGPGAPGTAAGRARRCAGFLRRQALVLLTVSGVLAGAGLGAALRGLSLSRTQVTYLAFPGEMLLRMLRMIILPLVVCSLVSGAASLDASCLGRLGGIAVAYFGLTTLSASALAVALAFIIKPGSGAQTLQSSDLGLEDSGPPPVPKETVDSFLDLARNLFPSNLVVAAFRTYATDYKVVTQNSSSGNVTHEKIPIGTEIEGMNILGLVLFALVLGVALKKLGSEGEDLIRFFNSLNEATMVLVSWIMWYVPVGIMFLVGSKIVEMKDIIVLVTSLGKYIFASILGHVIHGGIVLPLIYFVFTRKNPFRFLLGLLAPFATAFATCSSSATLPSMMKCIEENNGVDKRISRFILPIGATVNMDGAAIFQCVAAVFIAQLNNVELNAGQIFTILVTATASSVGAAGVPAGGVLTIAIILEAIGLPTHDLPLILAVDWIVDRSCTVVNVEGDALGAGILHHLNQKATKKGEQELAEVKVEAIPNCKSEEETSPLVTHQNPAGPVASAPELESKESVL
Method: Uptake of L-[^3H]amino acids (PerkinElmer Life Sciences) was measured in oocytes expressing wild-type and mutant ASCT1, and uninjected oocytes. Five oocytes were incubated in Cl^−-containing buffer with 10 µM L-[^3H]amino acids at room temperature. After 10 min, uptake was terminated by three rapid washes in ice-cold Cl^−-containing buffer followed by lysis in 50 mM NaOH and 1% SDS. L-[^3H]amino acids were measured by scintillation counting using a Trilux beta counter (PerkinElmer Life Sciences).

ASCT1 = target: T2, ASCT1 (Homo sapiens, UniProt P43007); test: Two electrode voltage clamp, substrate-activated anion current in oocytes expressing ASCT1; type: cell-based
T2 construct: expressed in transfected cells; host or cells: Xenopus laevis oocytes (cRNA injection)
T2 sequence (P43007 1-532): T1 sequence (P43007 1-532 T458S/T459C) with S458T, C459T
Method: All chemicals were obtained from Sigma unless otherwise stated. Stage V oocytes were harvested from female Xenopus laevis (frogs) which were obtained from Nasco (Fort Alkinson, USA). Frogs were anaesthetised with 6.5 mM tricaine neutralised with 7.14 mM sodium bicarbonate. After making an incision in the abdomen of the frog, ovarian sacs were removed and stored in OR-2 buffer (82.5 mM NaCl, 2 mM KCl, 1 mM MgCl2, 5 mM hemisodium HEPES, pH 7.5). This surgical procedure follows a protocol (#2016/970) approved by the University of Sydney Animal Ethics Committee under the Australian Code of Practice for the Care and Use of Animals for Scientific Purposes. […]
After 2–4 days of microinjection, current recordings were made using the two electrode voltage clamp technique with a Geneclamp 500 amplifier (Axon Instruments, Foster City, CA) interfaced with a MacLab 2e chart recorder (ADI Instruments, Sydney, Australia) using the chart software, and a Digidata 1322A (Axon Instruments) controlled by an IBM-compatible computer using the pClamp software (version 10, Molecular Devices, Union City, CA). […] Current–voltage relationships were calculated by subtracting steady state current measurements in the absence of substrate from corresponding current measurements in the presence of substrate. […]

Structure (SMILES) | Radiolabelled substrate uptake into oocytes (in words) [1] | GPNA % inhibition of L-serine activated current (ASCT1; ASCT1, GPNA co-applied with EC50 of L-serine, 300 µM GPNA / 1 mM GPNA (Table 1 footnote)) [%] | EC50 (ASCT1; ASCT1 in oocytes, NO3−-containing buffer, current at +60 mV, dash = substrate did not generate currents) [µM]
NC(=O)CC[C@H](N)C(=O)O [L-glutamine] | robust accumulation |  | 
N[C@@H](CCC(=O)Nc1ccc([N+](=O)[O-])cc1)C(=O)O [GPNA, glutamyl-p-nitroanilide] |  | 26 ± 3 | 
N[C@@H](CO)C(=O)O [L-serine] | robust accumulation |  | 100 ± 20
